Entries after “also recorded” stand apart in the source; their conditions may differ.
Experiments:
[1] = tested on: sciatic nerve of rats made diabetic by streptozotocin; experiment: sciatic nerve blood flow by microelectrode polarography hydrogen clearance in streptozotocin diabetic rats; type: in vivo, rat; details: STZ diabetic Sprague Dawley rats; GLA approx. 20 mg/kg/daily in food, TA 20 mg/kg/day intraperitoneal; 2 weeks treatment starting 6 weeks after STZ
Excerpt: (§1) Initial experimental evidence was obtained by studying rats made diabetic by the administration of streptozotocin. In such animal, complications resembling human complications of diabetes develop, and are characterised by reduction in conduction velocity to of impulses along the sciatic nerve and reduction in blood flow to the sciatic nerve. The reduction in blood flow is particularly important and is likely to be relevant to many complications of diabetes including retinopathy, nephropathy macrovascular arterial disease of the heart and peripheral arteries, impotence and leg ulceration. It may also be relevant to many of the other conditions in which essential fatty acids are useful treatments, including the inflammatory disorders. Five groups of animals given streptozotocin (STZ) were tested. They were accepted into the study only if they developed unequivocal elevation of blood glucose after the STZ. Ten animals acted as normal controls. […] The animals were left for 6 weeks after the STZ to allow the nerve damage to develop and were then given treatment with nothing or with GLA or TA or both together for 2 weeks At the end of the two weeks, the animals were anaesthetised and the motor nerve conduction velocity measured in the perineal branch of the sciatic nerve. Sciatic nerve blood flow was also measured by microelectrode polarography hydrogen clearance

[2] = tested on: perineal branch of the sciatic nerve of rats made diabetic by streptozotocin; experiment: motor nerve conduction velocity in streptozotocin diabetic rats; type: in vivo, rat; details: STZ diabetic Sprague Dawley rats; GLA approx. 20 mg/kg/daily in food, TA 20 mg/kg/day intraperitoneal; 2 weeks treatment starting 6 weeks after STZ
Excerpt: as §1

[3] = tested on: red cell membrane phospholipids; experiment: fatty acid levels in red cell membrane phospholipids of rats fed GLA, EPA or DHA with or without anti-oxidant; type: in vivo, rat; details: two weeks; for effect on levels of the fatty acids or their immediate metabolites in red cell membrane phospholipids: fatty acid (GLA, EPA or DHA) 0.1% by weight in food plus 0.1% by weight anti-oxidant, preliminary experiments
Experimental: (§2) In an effort to explore the effect further, we have performed preliminary experiments on rats on the effects of the administration of either GLA, EPA or DHA with or without the so anti-oxidants vitamin E, vitamin C or TA. Each fatty acid was added to the food at 0.1% by weight for a period of two weeks. The diet also contained either no other added material (control) or 0.1% by weight of vitamin E, vitamin C or TA. After two weeks the animals were killed and the levels of the fatty acids or their immediate metabolites determined in plasma phospholipids and in red cell membrane phospholipids. […] We can therefore conclude that there is no effect of anti-oxidants per se on the metabolism of the GLA, EPA or DHA in this situation. Equally, there were no effects of TA on the plasma phospholipid fatty acid composition. In contrast, in each of the groups the concentrations of the relevant fatty acids in red cell phospholipids were increased by 10-20%.

plasma phospholipids = experiment: fatty acid levels in plasma phospholipids of rats fed GLA, EPA or DHA with or without anti-oxidant; type: in vivo, rat; details: fatty acid (GLA, EPA or DHA) 0.1% by weight in food plus 0.1% by weight anti-oxidant, two weeks, preliminary experiments
Experimental: as §2

nerve conduction = details: TA alone; Packer et al, pages 570-572; cited from earlier work
animals with diabetes = experiment: vitamin E administered together with GLA in animals with diabetes; type: in vivo
Excerpt: (§3) The results with EFA's and their synergistic effects with TA were completely unexpected and we decided to investigate them further. Vitamin E, like TA, is a lipophilic antioxidant and is one which is generally regarded as being physiologically more important than TA.

[4] = tested on: atopic eczema, breast pain, rheumatoid arthritis and cardiovascular disease; experiment: clinical studies of GLA with co-administration of vitamin E; type: in vivo, human
Excerpt: as §3

Molecule | total nerve blood flow [1] | motor nerve conduction velocity [2] | effect on levels of the fatty acids or their immediate metabolites in red cell membrane phospholipids [3] | effect on levels of the fatty acids or their immediate metabolites in plasma phospholipids (plasma phospholipids) | increase of concentrations of the relevant fatty acids in red cell phospholipids ([3]; GLA, EPA or DHA 0.1% by weight in food plus 0.1% by weight TA, versus control without TA) | effect on nerve conduction (nerve conduction) | enhancement of the effect of GLA (animals with diabetes) | enhancement of the effects of GLA in clinical studies [4]
CCCCC/C=C\C/C=C\C/C=C\CCCCC(=O)O [GLA, Gamma-linolenic acid] | little effect alone; also recorded: small improvements | little effect alone; also recorded: small improvements |  |  |  |  |  | 
O=C1O[C@H]([C@@H](O)CO)C(O)=C1O [vitamin C] |  |  | Neither vitamin E nor vitamin C had any effects | Neither vitamin E nor vitamin C had any effects |  |  |  | 
O=C(O)CCCCC1CCSS1 (stereo not drawn) [TA, α-lipoic acid] | little effect alone; also recorded: small improvements | little effect alone; also recorded: small improvements |  | no effects | 10-20% | absence of effect |  | 
vitamin E |  |  | Neither vitamin E nor vitamin C had any effects | Neither vitamin E nor vitamin C had any effects |  |  | no enhancement at all | not enhanced

— patent US6630157B1, “Therapeutic and dietary compositions containing essential fatty acids and bioactive disulphides” (Viatris GmbH & Co. KG., priority 1997, dated 2003)
